Measured values: patent US12514832B2, “Methods for using low-dose colchicine after myocardial infarction” (INSTITUT DE CARDIOLOGIE DE MONTREAL, priority 2019, dated 2026)

Tested on: patients recruited within 30 days after a myocardial infarction
Assay: COLCOT randomized, double-blind, placebo-controlled trial: clinical efficacy end points
Assay type: in vivo, human
Set-up: Primary efficacy composite endpoint, % of patients with event: concentration or dose not given beside the values
Conditions: for risk of ischemic cardiovascular events / primary composite efficacy end point versus placebo (in words): 0.5 mg once daily; for Total primary endpoint events, Rate Ratio (95% CI), Negative binomial model: marginal rate ratio
Description: We performed a randomized, double-blind trial involving patients recruited within 30 days after a myocardial infarction. The patients were randomly assigned to receive either low-dose colchicine (0.5 mg once daily) or placebo. A total of 4745 patients were enrolled; 2366 patients were assigned to the colchicine group, and 2379 to the placebo group. Patients were followed for a median of 22.6 months.
The primary efficacy end point was a composite of death from cardiovascular causes, resuscitated cardiac arrest, myocardial infarction, stroke, or urgent hospitalization for angina leading to coronary revascularization. The components of the primary end point and safety were also assessed.
In this randomized, double-blind, placebo-controlled, investigator-initiated trial, we assigned patients in a 1:1 ratio to receive either colchicine (at a dose of 0.5 mg once daily) or placebo. The trial protocol, available at NEJM.org, was designed by a trial steering committee. The protocol was approved by the institutional review board at each of the 167 centers in the 12 countries that participated in the trial (available at NEJM.org). All trial support activities, including project coordination, data management, site monitoring, and statistical oversight and analyses, were performed at the Montreal Health Innovations Coordinating Center. Potential trial end-point events were adjudicated by an independent clinical end-point committee composed of experienced cardiologists and neurologists who were unaware of the trial-group assignments. The trial was overseen by a data and safety monitoring board of independent experts. The trial medication and matching placebo were provided by Pharmascience.
Patients were excluded if they had severe heart failure, a left ventricular ejection fraction of less than 35%, stroke within the previous 3 months, a type 2 index myocardial infarction, coronary-bypass surgery either within the previous 3 years or planned, a history of noncutaneous cancer within the previous 3 years, inflammatory bowel disease or chronic diarrhea, neuromuscular disease or a nontransient creatine kinase level that was greater than three times the upper limit of the normal range (unless due to infarction), clinically significant nontransient hematologic abnormalities, severe renal disease with a serum creatinine level that was greater than two times the upper limit of the normal range; severe hepatic disease, drug or alcohol abuse, current or planned long-term systemic glucocorticoid therapy, or a history of clinically significant sensitivity to colchicine. (Details regarding eligibility criteria are provided herein.)
The primary efficacy end point was a composite of death from cardiovascular causes, resuscitated cardiac arrest, myocardial infarction, stroke, or urgent hospitalization for angina leading to coronary revascularization in a time-to-event analysis.
The secondary end points consisted of the components of the primary efficacy end point; a composite of death from cardiovascular causes, resuscitated cardiac arrest, myocardial infarction, or stroke; and total mortality in time-to-event analyses. Coronary revascularization, hospitalization for heart failure, atrial fibrillation, and deep venous thrombosis or pulmonary embolus were prespecified as exploratory end points in the protocol.
The efficacy analyses were conducted with the use of positively adjudicated data and according to the intention-to-treat principle. The primary end point was compared between the two trial groups with the use of a log-rank test, and the hazard ratio from a Cox proportional-hazards model, with a 95% confidence interval, was calculated. A Cox proportional-hazards model with adjustment for important baseline characteristics was also used as prespecified in the protocol.
The analysis of the primary end point was repeated in the per-protocol population (i.e., patients without major protocol deviations). […]

[1] = ITT, N=2366, first and recurrent events
[2] = colchicine vs placebo, ITT, listed as colchicine
[3] = colchicine vs placebo, per-protocol population
[4] = per-protocol population, N=2260

COc1cc2c(c(OC)c1OC)-c1ccc(OC)c(=O)cc1[C@@H](NC(C)=O)CC2 [Colchicine, colchicine]
risk of ischemic cardiovascular events / primary composite efficacy end point versus placebo (in words): statistically significant lower risk of ischemic cardiovascular events than placebo
risk of ischemic cardiovascular events / primary composite efficacy end point versus placebo (in words) (listed as colchicine): significantly lower percentage of patients with ischemic cardiovascular events than placebo
Time to first primary endpoint, Adjusted Hazard Ratio (95% CI) (Colchicine vs. Placebo, multivariable Cox regression adjusted for age, diabetes, prior revascularization, prior heart failure): 0.78 (0.62-0.98)
Atrial fibrillation, number of patients (ITT, N=2366, 0.5 mg once daily): 36
Atrial fibrillation, percent (ITT, N=2366, 0.5 mg once daily): 1.5%
Death from cardiovascular causes, number of patients (ITT, N=2366, 0.5 mg once daily): 20
Death from cardiovascular causes, percent (ITT, N=2366, 0.5 mg once daily): 0.8%
Death, number of patients (ITT, N=2366, 0.5 mg once daily): 43
Death, percent (ITT, N=2366, 0.5 mg once daily): 1.8%
Deep venous thrombosis or pulmonary embolus, number of patients (ITT, N=2366, 0.5 mg once daily): 10
Deep venous thrombosis or pulmonary embolus, percent (ITT, N=2366, 0.5 mg once daily): 0.4%
Myocardial infarction, number of patients (ITT, N=2366, 0.5 mg once daily): 89
Myocardial infarction, percent (ITT, N=2366, 0.5 mg once daily): 3.8%
Primary composite end point, number of patients (ITT, N=2366, 0.5 mg once daily): 131
Primary composite end point, percent of patients (ITT, N=2366, 0.5 mg once daily): 5.5%
Resuscitated cardiac arrest, number of patients (ITT, N=2366, 0.5 mg once daily): 5
Resuscitated cardiac arrest, percent (ITT, N=2366, 0.5 mg once daily): 0.2%
Secondary composite end point (CV death, resuscitated cardiac arrest, MI, stroke), number of patients (ITT, N=2366, 0.5 mg once daily): 111
Secondary composite end point, percent (ITT, N=2366, 0.5 mg once daily): 4.7%
Stroke, number of patients (ITT, N=2366, 0.5 mg once daily): 5
Stroke, percent (ITT, N=2366, 0.5 mg once daily): 0.2%
Urgent hospitalization for angina leading to revascularization, number of patients (ITT, N=2366, 0.5 mg once daily): 25
Urgent hospitalization for angina leading to revascularization, percent (ITT, N=2366, 0.5 mg once daily): 1.1%
Total number of primary endpoint events (first and recurrent) (ITT, N=2366, 52949 patient-months of follow-up): 154
Number of patients with 0 primary endpoint events [1]: 2235
Number of patients with 1 primary endpoint event [1]: 111
Number of patients with 2 primary endpoint events [1]: 18
Number of patients with 3 primary endpoint events [1]: 1
Number of patients with 4 primary endpoint events [1]: 1
Rate of primary endpoint events per 100 patient-months [1]: 0.29 per 100 patient-months
Atrial fibrillation, Hazard Ratio (95% CI) (colchicine vs placebo, ITT): 0.93 (0.59-1.46)
Death from cardiovascular causes, Hazard Ratio (95% CI) (colchicine vs placebo, ITT): 0.84 (0.46-1.52)
Death, Hazard Ratio (95% CI) (colchicine vs placebo, ITT): 0.98 (0.64-1.49)
Deep venous thrombosis or pulmonary embolus, Hazard Ratio (95% CI) (colchicine vs placebo, ITT): 1.43 (0.54-3.75)
Myocardial infarction, Hazard Ratio (95% CI) (colchicine vs placebo, ITT): 0.91 (0.68-1.21)
Resuscitated cardiac arrest, Hazard Ratio (95% CI) (colchicine vs placebo, ITT): 0.83 (0.25-2.73)
Secondary composite end point, Hazard Ratio (95% CI) (colchicine vs placebo, ITT): 0.85 (0.66-1.10)
Stroke, Hazard Ratio (95% CI) (colchicine vs placebo, ITT): 0.26 (0.10-0.70)
Total primary endpoint events, Hazard Ratio (95% CI), Andersen-Gill model (colchicine vs placebo, ITT): 0.69 (0.54; 0.88)
Total primary endpoint events, Hazard Ratio (95% CI), WLW model 1st Event (colchicine vs placebo, ITT): 0.77 (0.61; 0.96)
Total primary endpoint events, Hazard Ratio (95% CI), WLW model 2nd Event (colchicine vs placebo, ITT): 0.73 (0.48; 1.11)
Total primary endpoint events, Hazard Ratio (95% CI), WLW model 3rd Event (colchicine vs placebo, ITT): 0.64 (0.37; 1.10)
Total primary endpoint events, Hazard Ratio (95% CI), WLW model Average (colchicine vs placebo, ITT): 0.77 (0.61; 0.96)
Urgent hospitalization for angina leading to revascularization, Hazard Ratio (95% CI) (colchicine vs placebo, ITT): 0.50 (0.31-0.81)
Total primary endpoint events, Rate Ratio (95% CI), Negative binomial model (colchicine vs placebo, ITT): 0.66 (0.51; 0.86)
Total primary endpoint events, Rate Ratio (95% CI), Negative binomial model [2]: 0.66
Primary composite end point, Hazard Ratio (95% CI) (colchicine vs placebo, ITT, time to first event): 0.77
Death from cardiovascular causes, Hazard Ratio (95% CI) [2]: 0.84
Myocardial infarction, Hazard Ratio (95% CI) [2]: 0.91
Resuscitated cardiac arrest, Hazard Ratio (95% CI) [2]: 0.83
Secondary composite end point, Hazard Ratio (95% CI) [2]: 0.85
Stroke, Hazard Ratio (95% CI) [2]: 0.26
Urgent hospitalization for angina leading to revascularization, Hazard Ratio (95% CI) [2]: 0.50
Primary endpoint, hazard ratio (colchicine vs placebo, men, per-protocol population): 0.70 (0.52; 0.93)
MI, Hazard Ratio (95% CI) [3]: 0.84 (0.62-1.14)
Primary endpoint, Hazard Ratio (95% CI) [3]: 0.71 (0.56-0.90)
Resuscitated cardiac arrest, Hazard Ratio (95% CI) [3]: 1.00 (0.29-3.46)
Stroke, Hazard Ratio (95% CI) [3]: 0.26 (0.10-0.71)
Urgent hospitalization for angina requiring revascularization, Hazard Ratio (95% CI) [3]: 0.47 (0.28-0.78)
Primary endpoint, Hazard Ratio (95% CI) (colchicine vs placebo, per-protocol population, listed as colchicine): 0.71
Primary efficacy composite endpoint, Hazard ratio (colchicine vs placebo, subgroup Active smoker): 0.93
Primary efficacy composite endpoint, Hazard ratio (colchicine vs placebo, subgroup Female): 0.99
Primary efficacy composite endpoint, Hazard ratio (colchicine vs placebo, subgroup History of diabetes No): 0.85
Primary efficacy composite endpoint, Hazard ratio (colchicine vs placebo, subgroup History of diabetes Yes): 0.65
Primary efficacy composite endpoint, Hazard ratio (colchicine vs placebo, subgroup History of hypertension No): 0.80
Primary efficacy composite endpoint, Hazard ratio (colchicine vs placebo, subgroup History of hypertension Yes): 0.76
Primary efficacy composite endpoint, Hazard ratio (colchicine vs placebo, subgroup Male): 0.70
Primary efficacy composite endpoint, Hazard ratio (colchicine vs placebo, subgroup Non-smoker): 0.90
Primary efficacy composite endpoint, Hazard ratio (colchicine vs placebo, subgroup Previous smoker): 0.59
Primary efficacy composite endpoint, Hazard ratio (colchicine vs placebo, subgroup Prior MI No): 0.68
Primary efficacy composite endpoint, Hazard ratio (colchicine vs placebo, subgroup Prior MI Yes): 1.05
Primary efficacy composite endpoint, Hazard ratio (colchicine vs placebo, subgroup Prior PCI or CABG No): 0.72
Primary efficacy composite endpoint, Hazard ratio (colchicine vs placebo, subgroup Prior PCI or CABG Yes): 0.91
Primary efficacy composite endpoint, Hazard ratio (colchicine vs placebo, subgroup Prior stroke or TIA No): 0.76
Primary efficacy composite endpoint, Hazard ratio (colchicine vs placebo, subgroup Prior stroke or TIA Yes): 1.09
Primary efficacy composite endpoint, Hazard ratio (colchicine vs placebo, subgroup White blood cell count Above median): 0.80
Primary efficacy composite endpoint, Hazard ratio (colchicine vs placebo, subgroup White blood cell count Below median): 0.85
Primary endpoint, hazard ratio (colchicine vs placebo, women, per-protocol population): 0.81 (0.47; 1.41)
MI, % [4]: 3.4%
MI, no. of patients [4]: 77
Primary endpoint, % of patients [4]: 5.1%
Primary endpoint, no. of patients [4]: 115
Resuscitated cardiac arrest, % [4]: 0.2%
Resuscitated cardiac arrest, no. of patients [4]: 5
Stroke, % [4]: 0.2%
Stroke, no. of patients [4]: 5
Urgent hospitalization for angina requiring revascularization, % [4]: 1.0%
Urgent hospitalization for angina requiring revascularization, no. of patients [4]: 22
Primary efficacy composite endpoint, % of patients with event (subgroup Active smoker): 5.4%
Primary efficacy composite endpoint, no. of patients with event (subgroup Active smoker, total 708): 38
Primary efficacy composite endpoint, % of patients with event (subgroup Female): 7.8%
Primary efficacy composite endpoint, no. of patients with event (subgroup Female, total 472): 37
Primary efficacy composite endpoint, % of patients with event (subgroup History of diabetes No): 4.8%
Primary efficacy composite endpoint, no. of patients with event (subgroup History of diabetes No, total 1904): 91
Primary efficacy composite endpoint, % of patients with event (subgroup History of diabetes Yes): 8.7%
Primary efficacy composite endpoint, no. of patients with event (subgroup History of diabetes Yes, total 462): 40
Primary efficacy composite endpoint, % of patients with event (subgroup History of hypertension No): 4.1%
Primary efficacy composite endpoint, no. of patients with event (subgroup History of hypertension No, total 1181): 48
Primary efficacy composite endpoint, % of patients with event (subgroup History of hypertension Yes): 7.0%
Primary efficacy composite endpoint, no. of patients with event (subgroup History of hypertension Yes, total 1185): 83
Primary efficacy composite endpoint, % of patients with event (subgroup Male): 5.0%
Primary efficacy composite endpoint, no. of patients with event (subgroup Male, total 1894): 94
Primary efficacy composite endpoint, % of patients with event (subgroup Non-smoker): 6.0%
Primary efficacy composite endpoint, no. of patients with event (subgroup Non-smoker, total 787): 47
Primary efficacy composite endpoint, % of patients with event (subgroup Previous smoker): 5.3%
Primary efficacy composite endpoint, no. of patients with event (subgroup Previous smoker, total 871): 46
Primary efficacy composite endpoint, % of patients with event (subgroup Prior MI No): 4.3%
Primary efficacy composite endpoint, no. of patients with event (subgroup Prior MI No, total 1996): 85
Primary efficacy composite endpoint, % of patients with event (subgroup Prior MI Yes): 12.4%
Primary efficacy composite endpoint, no. of patients with event (subgroup Prior MI Yes, total 370): 46
Primary efficacy composite endpoint, % of patients with event (subgroup Prior PCI or CABG No): 4.3%
Primary efficacy composite endpoint, no. of patients with event (subgroup Prior PCI or CABG No, total 1947): 83
Primary efficacy composite endpoint, % of patients with event (subgroup Prior PCI or CABG Yes): 11.5%
Primary efficacy composite endpoint, no. of patients with event (subgroup Prior PCI or CABG Yes, total 419): 48
Primary efficacy composite endpoint, % of patients with event (subgroup Prior stroke or TIA No): 5.3%
Primary efficacy composite endpoint, no. of patients with event (subgroup Prior stroke or TIA No, total 2311): 123
Primary efficacy composite endpoint, % of patients with event (subgroup Prior stroke or TIA Yes): 14.5%
Primary efficacy composite endpoint, no. of patients with event (subgroup Prior stroke or TIA Yes, total 55): 8
Primary efficacy composite endpoint, % of patients with event (subgroup White blood cell count Above median): 5.3%
Primary efficacy composite endpoint, no. of patients with event (subgroup White blood cell count Above median, total 637): 34
Primary efficacy composite endpoint, % of patients with event (subgroup White blood cell count Below median): 6.2%
Primary efficacy composite endpoint, no. of patients with event (subgroup White blood cell count Below median (8.64 × 10^3/μL), total 660): 41
